Literature values as cited in US20040265381A1, “Anti-asthmatic drug (asmakure) from indigenous herbs to cure the disease asthma” (priority 2001, published 2004).

**Q.** Which results are given for `CCN(CC)CC#CCOC(=O)C(O)(c1ccccc1)C1CCCCC1.Cl` (stereo not drawn) [Oxybutynin, α-cyclohexyl-α-hydroxybenzeneacetic acid 4-(diethylamino)-2-butynyl ester hydrochloride]?
**A.** start of pharmacological action (following oral administration): within one hour; half-life (in vivo): less than 2 hours
